Results as given in patent US4861768A, “2 β-substituted thiomethylpenicillin derivatives and their preparation and use” (Taiho Pharmaceutical Company, Limited, priority 1986, dated 1989).

Tests used:
[1] = biological target: penicillinase (β-lactamase) from Bacillus SP; test: Test for β-lactamase inhibitory activity (microiodometry, penicillin G as substrate); type: biochemical; conditions: read-out: 50% Inhibitory Concentration
Method: The inhibitory activity of each compound against penicillinase (β-lactamase) from Bacillus SP was determined by microiodometry [Tanpakushitsu Kakusan Koso (Proteins, Nucleic Acids and Enzymes), vol. 23, No.5, pp 391-400 (1978)] using penicillin G as a substrate.

Echerichia coli SHV 1 = test: MIC of piperacillin alone or with compound, Echerichia coli SHV 1; type: cell-based; conditions: 20 h, read-out: MIC, Piperacillin alone
Method: (§1) (1) The minimal inhibitory concentrations (MIC) of piperacillin in the presence of 10 μg/ml of compounds of the present invention against various bacteria were determined by the MIC assay method of Japan Society of Chemotherapy (Chemotherapy 29, No. 1, pp. 76-79, 1981). The MIC values of various compounds according to the present invention and of piperacillin, as used singly, were also determined. Each test strain was grown in Mueller Hinton Broth (Difco) and used for inoculation after dilution to a concentration of 10^6 CFU/ml. The assay media (Mueller Hinton Broth) containing piperacillin and the compound according to the present invention in a series of concentrations were inoculated with the test strain and incubated at 37° C. for 20 hours. The minimum concentration at which no more than 5 colonies were observed was determined. […] All the test strains used in the above assays were β-lactamase producers.

[2] = tested on: Klebsiella pneumoniae 101 L (TEM1); test: MIC of piperacillin alone or with compound, Klebsiella pneumoniae 101 L (TEM1); type: cell-based; conditions: 20 h, read-out: MIC, Piperacillin alone
Method: as §1

Morganella morganii 119 = test: MIC of piperacillin alone or with compound, Morganella morganii 119; type: cell-based; conditions: alone, Mueller Hinton Broth, 10^6 CFU/ml, 37° C., 20 hours
Method: as §1

[3] = tested on: Serratia marcescens 200 L (TEM + C); test: MIC of piperacillin alone or with compound, Serratia marcescens 200 L (TEM + C); type: cell-based; conditions: alone, Mueller Hinton Broth, 10^6 CFU/ml, 37° C., 20 hours
Method: as §1

Acinetobacter 450 L = test: MIC of piperacillin alone or with compound, Acinetobacter 450 L; type: cell-based; conditions: alone, Mueller Hinton Broth, 10^6 CFU/ml, 37° C., 20 hours
Method: as §1

[4] = tested on: Pseudomonas aeruginosa PSE 3; test: MIC of piperacillin alone or with compound, Pseudomonas aeruginosa PSE 3; type: cell-based; conditions: PSE3, alone, Mueller Hinton Broth, 10^6 CFU/ml, 37° C., 20 hours
Method: as §1

[5] = tested on: Staphylococcus aureus 54 K; test: MIC of piperacillin alone or with compound, Staphylococcus aureus 54 K; type: cell-based; conditions: alone, Mueller Hinton Broth, 10^6 CFU/ml, 37° C., 20 hours
Method: as §1

Compound: CC1(CSc2nnnn2-c2ccccc2)C(C(=O)O)N2C(=O)CC2S1(=O)=O (stereo not drawn) [Compound 28, sodium 2α-methyl-2β-(1-phenyl-5-tetrazolyl)thiomethylpenam-3α-carboxylate 1,1-dioxide]
- IC50 [1]: 1000 nM

Compound: CC1(CSc2nnnn2-c2ccc(Cl)cc2)C(C(=O)O)N2C(=O)CC2S1(=O)=O (stereo not drawn) [Compound 29, sodium 2β-(1-p-chlorophenyl-5-tetrazolylthio)methyl-2α-methylpenam-3α-carboxylate 1,1-dioxide]
- IC50 [1]: 480 nM

Compound: CCN1CCN(C(=O)N[C@@H](C(=O)N[C@@H]2C(=O)N3[C@@H]2SC(C)(C)[C@@H]3C(=O)O)c2ccccc2)C(=O)C1=O [Piperacillin, piperacillin]
- MIC (Echerichia coli SHV 1): 12.5 µg/mL
- MIC [2]: 200 µg/mL
- MIC (Morganella morganii 119): 25 µg/mL
- MIC [3]: 25 µg/mL
- MIC (Acinetobacter 450 L): 200 µg/mL
- MIC [4]: 50 µg/mL
- MIC [5]: 6.25 µg/mL

Compound: COc1ccc(-n2nnnc2SCC2(C)C(C(=O)O)N3C(=O)CC3S2(=O)=O)cc1 (stereo not drawn) [Compound 30, sodium 2β-(1-p-methoxyphenyl-5-tetrazolylthio)methyl-2α-methylpenam-3α-carboxylate 1,1-dioxide]
- IC50 [1]: 750 nM

Compound: CC1(CSc2nnnn2CCO)C(C(=O)O)N2C(=O)CC2S1(=O)=O (stereo not drawn) [Compound 31, sodium 2β-[1-(2'-hydroxyethyl)-5-tetrazolylthio]methyl-2α-methylpenam-3α-carboxylate 1,1-dioxide]
- IC50 [1]: 1820 nM

Compound: Cn1nnnc1SCC1(C)C(C(=O)O)N2C(=O)CC2S1(=O)=O (stereo not drawn) [Compound 27, sodium 2α-methyl-2β-(1-methyl-5-tetrazolyl)thiomethylpenam-3α-carboxylate 1,1-dioxide]
- IC50 [1]: 870 nM

Compound: CC1(CSC#N)C(C(=O)O)N2C(=O)CC2S1(=O)=O (stereo not drawn) [Compound 26, sodium 2α-methyl-2β-thiocyanatomethylpenam-3α-carboxylate 1,1-dioxide]
- IC50 [1]: 9800 nM
